According to patent US8772499B2, “TRPV3 modulators” (AbbVie Inc., priority 2011, dated 2014):
Like-named read-outs stand apart in the source and are kept apart here.

Tests used:
[1] = In vitro human microsomal stability assay; assay type: in vitro ADME; conditions: human, microsomes, 0.5 h, 0.5 μM, pH 7.4
Outline: (§1)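 Metabolic stability was followed in NADPH-supplemented incubations at 37° C., using microsomes prepared from human liver or from Sprague-Dawley rat liver.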

[2] = target: T1, human TRPV3 (Homo sapiens, UniProt Q8NET8); assay: In vitro antagonism of recombinant human TRPV3 activation (FLIPR Tetra calcium assay); assay type: cell-based; conditions: HEK293 cells stably expressing human TRPV3, agonist 2-APB at 80 μM
T1 construct: expressed in transfected cells
T1 sequence (Q8NET8 1-790): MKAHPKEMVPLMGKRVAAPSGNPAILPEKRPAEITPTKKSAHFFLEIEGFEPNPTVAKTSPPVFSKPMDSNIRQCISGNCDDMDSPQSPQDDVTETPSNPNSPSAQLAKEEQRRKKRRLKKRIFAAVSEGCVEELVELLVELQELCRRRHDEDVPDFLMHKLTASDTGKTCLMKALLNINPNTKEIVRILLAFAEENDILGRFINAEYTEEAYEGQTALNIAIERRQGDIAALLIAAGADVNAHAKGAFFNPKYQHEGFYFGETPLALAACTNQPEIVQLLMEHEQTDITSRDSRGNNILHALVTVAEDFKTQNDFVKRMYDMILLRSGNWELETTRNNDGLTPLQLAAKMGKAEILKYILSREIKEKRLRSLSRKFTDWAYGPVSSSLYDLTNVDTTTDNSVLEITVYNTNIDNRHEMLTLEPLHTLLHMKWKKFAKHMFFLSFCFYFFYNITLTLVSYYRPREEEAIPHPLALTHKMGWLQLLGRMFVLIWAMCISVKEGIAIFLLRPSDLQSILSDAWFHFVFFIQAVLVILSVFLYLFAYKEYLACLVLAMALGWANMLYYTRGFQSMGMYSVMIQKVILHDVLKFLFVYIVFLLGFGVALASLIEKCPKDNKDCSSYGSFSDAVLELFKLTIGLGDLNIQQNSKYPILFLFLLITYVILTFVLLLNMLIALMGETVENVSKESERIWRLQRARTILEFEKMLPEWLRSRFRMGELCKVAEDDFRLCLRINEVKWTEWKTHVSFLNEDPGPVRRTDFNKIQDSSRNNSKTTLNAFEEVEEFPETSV
Outline: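 Calcium flux read over a 10 min run: compound added at 10 s to Calcium-4-loaded human TRPV3-HEK293 cells, agonist 2-APB (80 μM, its EC80) after 3 min. IC50 derived from peak-minus-baseline signal as percentage of uninhibited 2-APB response, typically averaged over at least two runs.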

[3] = In vitro rat microsomal stability assay; assay type: in vitro ADME, rat (Sprague-Dawley); conditions: Sprague-Dawley, rat, microsomes, 0.5 h, 0.5 μM, pH 7.4
Outline: as §1

[4] = actual measured value shown parenthetically, in most cases average of at least two runs, read-out: IC50
[5] = reported range, read-out: IC50 (range class)

Row | Structure (SMILES) | HUMAN MICROSOMAL STABILITY (% REMAINING AFTER 30 MINUTES) [1] | IC50 [2, 4] | RAT MICROSOMAL STABILITY (% REMAINING AFTER 30 MINUTES) [3] | IC50 [2, 5]
1 | OC(c1ccccn1)C1(c2ccc(F)cc2)CCC1 (centres unmarked) [Example 3, [1-(4-fluorophenyl)cyclobutyl](pyridin-2-yl)methanol] | 28% | 0.79 µM | 3.8% | 
2 | OC(c1ccccn1)C1(C2CCCC2)CCC1 (centres unmarked) [Example 163, (1-cyclopentylcyclobutyl)(pyridin-2-yl)methanol] | 0.11% | 4.9 µM | <0.01% | 
3 | CC(C)(C)OC(=O)N1CCC(c2ccc(C(F)(F)F)cc2)(C(O)c2ccccn2)CC1 (centres unmarked) [Example 156, tert-butyl 4-[hydroxy(pyridin-2-yl)methyl]-4-[4-(trifluoromethyl)phenyl]-piperidine-1-carboxylate] | 26% | > 20 µM | 0.08% | > 20 µM
4 | OC(C1CCc2cccnc21)C1(c2ccc(F)c(F)c2)CCC1 (stereo not drawn) [Example 171, (anti)-[1-(3,4-difluorophenyl)cyclobutyl][6,7-dihydro-5H-cyclopenta[b]-pyridin-7-yl]methanol] | 2.7% | > 20 µM | <0.01% | > 20 µM
5 | OC(C1CCc2cccnc21)C1(c2cccc(OC(F)(F)F)c2)CCC1 (stereo not drawn) [Example 190, (syn)-6,7-dihydro-5H-cyclopenta[b]pyridin-7-yl{1-[3-(trifluoromethoxy)-phenyl]cyclobutyl}methanol] | 3.7% | > 20 µM | <0.01% | > 20 µM
6 | CC(C)(C)OC(=O)N1CC(c2ccc(C(F)(F)F)cc2)(C(O)c2ccccn2)C1 (centres unmarked) [Example 153, tert-butyl 3-[hydroxy(pyridin-2-yl)methyl]-3-[4-(trifluoromethyl)phenyl]-azetidine-1-carboxylate] | 49% | 8.01 µM | 21% | 
7 | O/N=C(\c1ccccn1)C1(c2ccc(Cl)c(Cl)c2)CCC1 [Example 230, (Z)-[1-(3,4-dichlorophenyl)cyclobutyl](pyridin-2-yl)methanone oxime] | 33% | > 10 µM | 30% | 
8 | OC(C1CCCc2cccnc21)C1(c2ccc(F)c(F)c2)CCC1 (single isomer, unassigned) [Example 170, (syn)-[1-(3,4-difluorophenyl)cyclobutyl][5,6,7,8-tetrahydroquinolin-8-yl]-methanol] | <0.01% | > 20 µM | <0.01% | > 20 µM
9 | OC(c1ccccn1)C1(c2cccc(F)c2)CCCO1 (single isomer, unassigned) [Example 101, (syn)-[2-(3-fluorophenyl)tetrahydrofuran-2-yl](pyridin-2-yl)methanol] | 40% | > 20 µM | 0.17% | > 20 µM
10 | OC1CC(c2ccc(Cl)c(Cl)c2)(C(O)c2ncccn2)C1 (single isomer, unassigned) [Example 313] | 81% | > 20 µM | >85% | > 20 µM
11 | N[C@@H]1CCC[C@H]1[C@@H](O)C1(c2ccc(Cl)c(Cl)c2)CCC1 [Example 220, (R)-[(1R,2R)-2-aminocyclopentyl][1-(3,4-dichlorophenyl)cyclobutyl]-methanol] | >85% | 0.65 µM | 67% | 
12 | OC(c1ccccn1)C1(c2nc3ccc(Cl)cc3o2)CCC1 (centres unmarked) [Example 301, [1-(6-chloro-1,3-benzoxazol-2-yl)cyclobutyl](pyridin-2-yl)methanol] | 57% | 6.04 µM | 22% | 
13 | OC(c1ccccn1)C1(C2CCCc3ccccc32)CCC1 (centres unmarked) [Example 56, pyridin-2-yl[1-(1,2,3,4-tetrahydronaphthalen-1-yl)cyclobutyl]methanol] | 0.42% | 1.07 µM | 1.1% | 
14 | OC(C1CCCc2cccnc21)C1(c2ccccc2C(F)(F)F)CCC1 (stereo not drawn) [Example 195, (anti)-5,6,7,8-tetrahydroquinolin-8-yl{1-[2-(trifluoromethyl)phenyl]-cyclobutyl}methanol] | <0.01% | > 20 µM | <0.01% | > 20 µM

The next lines start with the values.

Row | HUMAN MICROSOMAL STABILITY (% REMAINING AFTER 30 MINUTES) [1] | IC50 [2, 4] | RAT MICROSOMAL STABILITY (% REMAINING AFTER 30 MINUTES) [3] | IC50 [2, 5] | Structure (SMILES)
15 | 0.42% | 1.1 µM | 0.62% |  | OC(c1ccccn1)C1(c2ccccc2OC(F)(F)F)CCC1 (centres unmarked) [Example 10, pyridin-2-yl{1-[2-(trifluoromethoxy)phenyl]cyclobutyl}methanol]
16 | 21% | 0.39 µM | 11% |  | O[C@H](c1ccccn1)C1(c2cc(C(F)(F)F)ccn2)CCC1 [Example 123, (S)-pyridin-2-yl{1-[4-(trifluoromethyl)pyridin-2-yl]cyclobutyl}methanol]
17 | 21% | 0.82 µM | 7.7% |  | O[C@H](c1ccccn1)C1(c2cc(C(F)(F)F)ccn2)CC(F)(F)C1 [Example 126, (S)-{3,3-difluoro-1-[4-(trifluoromethyl)pyridin-2-yl]cyclobutyl}(pyridin-2-yl)methanol]
18 | 6.8% | 0.41 µM | 0.45% |  | OC(CC1(c2cccc(C(F)(F)F)c2)CCC1)c1ccccn1 (centres unmarked) [Example 74, 1-(pyridin-2-yl)-2-{1-[3-(trifluoromethyl)phenyl]cyclobutyl}ethanol]
19 | 82% | 5.61 µM | 76% |  | OC(c1ccccn1)C1(c2ccc(C(F)(F)F)nc2)CCC1 (centres unmarked) [Example 85, pyridin-2-yl{1-[6-(trifluoromethyl)pyridin-3-yl]cyclobutyl}methanol]
20 | >85% | 17.3 µM | 53% |  | Cc1cc(C(F)(F)F)cc(C2([C@@H](O)c3ccccn3)CC(=O)C2)n1 [Example 291, 3-[(R)-hydroxy(pyridin-2-yl)methyl]-3-[6-methyl-4-(trifluoromethyl)-pyridin-2-yl]cyclobutanone]
21 | 70% | > 20 µM | 8.2% | > 20 µM | O=C1CC(c2cncc(C(F)(F)F)c2)(C(O)c2ccccn2)C1 (centres unmarked) [Example 295, 3-[hydroxy(pyridin-2-yl)methyl]-3-[5-(trifluoromethyl)pyridin-3-yl]-cyclobutanone]
22 | 37% | 0.75 µM | 25% |  | OC(c1ccccn1)C1(c2cc(C(F)(F)F)ccn2)CCC1 (centres unmarked) [Example 116, pyridin-2-yl{1-[4-(trifluoromethyl)pyridin-2-yl]cyclobutyl}methanol]
23 | 6.3% | 0.31 µM | 1.0% |  | O[C@H](c1ccccn1)C1(c2ccc(Cl)c(Cl)c2)CCC1 [Example 26, (S)-[1-(3,4-dichlorophenyl)cyclobutyl](pyridin-2-yl)methanol]
24 | 8.0% | 0.5 µM | 2.8% |  | OC(c1ccccn1)C1(c2cncc(C(F)(F)F)c2)CCC1 (centres unmarked) [Example 110, pyridin-2-yl{1-[5-(trifluoromethyl)pyridin-3-yl]cyclobutyl}methanol]
25 | 7.4% | 0.6 µM | 19% |  | OC(c1ccccn1)C1(c2cc(C(F)(F)F)cc(C(F)(F)F)c2)CCC1 (centres unmarked) [Example 13, {1-[3,5-bis(trifluoromethyl)phenyl]cyclobutyl}(pyridin-2-yl)methanol]
